Read-outs that look alike come from different tables or passages of the source.
Tests used:
[1] = tested on: mouse peritoneal macrophage; details: dose 5 μM, microscopic observation
[2] = tested on: mouse peritoneal macrophage; experiment: In vitro tests on inhibition of foaming of macrophage with mouse peritoneal macrophage (cholesteryl ester formation); format: cell-based, mouse (female ICR); details: 16 hours at 37° C., read-out: CE (%) (cholesteryl ester-forming rate, ratio to the control)
Experimental: (1) In vitro tests on inhibition of foaming of macrophage with mouse peritoneal macrophage:
The necks of 15-week old female ICR mice (Japan SLC) were cut off. After blood-letting, Hanks buffer solution (Nissui Seiyaku Co., Ltd.) was injected into the abdominal cavity of each mouse. The abdomen was massaged and then the buffer solution was rapidly recovered, centrifuged at 1000 rotations for 5 minutes to collect the peritoneal macrophages. The peritoneal macrophases thus collected were then suspended in GIT medium (Wako Pure Chemical Industries, Ltd.), and the suspension was spread on a 24-hole microplate. After the cultivation at 37° C. in 5% CO2 for 2 hours, the medium was replaced with a Dulbecoo Modified Eagle's MEM medium (Nissui Seiyaku Co., Ltd.). After the cultivation at 37° C. in 5% CO2 for additional 16 hours, the following substances were added in the following order:
(1) subject: dissolved in DMSO (Wako Pure Chemical Industries, Ltd.)
PC: phosphatidyl choline (a product of Funakoshi)
PS: phosphatidyl serine (ditto)
DCP: dicetyl phosphate (ditto)
CHOL.: cholesterol (Sigma).
After further cultivation at 37° C. in 5% CO2 for 16 hours, the lipid fraction was extracted with chloroform and methanol. The lipid fraction thus extracted was dissolved in isopropyl alcohol, and the formed cholesteryl ester (CE) was determined by an enzymatic coloring method. The cholesteryl ester-forming rate of each compound was calculated in terms of the ratio thereof to the control. The cytotoxicity was examined by microscopic observation of the shape of the cell.
The pharmacological effects of the compounds given in Table 2 were evaluated in the same manner as that of Example 3.

Row | SMILES | Cytotoxicity ([1]; Table 1) | activity at 5 µM ([2]; Table 1, ratio to control) [%] | Cytotoxicity ([1]; Table 2) | further results
1 | c1ccc2[nH]c(SCCOCCSc3nc4ccccc4[nH]3)nc2c1 [Compound (1)] | none | 25 |  | 
2 | CCCC(=O)n1c(SCCOCCSc2nc3ccccc3n2C(=O)CCC)nc2ccccc21 [Compound (3)] | none | 15 |  | 
3 | CCCCCC(=O)n1c(SCCOCCSc2nc3ccccc3n2C(=O)CCCCC)nc2ccccc21 [Compound (5)] | none | 20 |  | 
4 | CCCCCCCC(=O)n1c(SCCOCCSc2nc3ccccc3n2C(=O)CCCCCCC)nc2ccccc21 [Compound (6)] | none | 26 |  | 
5 | CCCCCCCCCCCCCC(=O)n1c(SCCOCCSc2nc3ccccc3n2C(=O)CCCCCCCCCCCCC)nc2ccccc21 [Compound (7)] | none | 74 |  | 
6 | CCCn1c(SCCOCCSc2nc3ccccc3n2CCC)nc2ccccc21 [Compound (8)] | none | 16 |  | 
7 | CCCCCCCCn1c(SCCOCCSc2nc3ccccc3n2CCCCCCCC)nc2ccccc21 [Compound (9)] | none | 28 |  | 
8 | c1ccc(Cn2c(SCCOCCSc3nc4ccccc4n3Cc3ccccc3)nc3ccccc32)cc1 [Compound (10)] | none | 76 |  | 
9 | Cc1ccc2[nH]c(SCCOCCSc3nc4cc(C)ccc4[nH]3)nc2c1 [Compound (11)] | none | 38 |  | 
10 | Cc1cc2nc(SCCOCCSc3nc4cc(C)c(C)cc4[nH]3)[nH]c2cc1C [Compound (13)] | none | 45 |  | 
11 | Clc1ccc2[nH]c(SCCOCCSc3nc4cc(Cl)ccc4[nH]3)nc2c1 [Compound (14)] | none | 18 |  | 
12 | Clc1cc2nc(SCCOCCSc3nc4cc(Cl)c(Cl)cc4[nH]3)[nH]c2cc1Cl [Compound (16)] | none | 46 |  | 
13 | CCC(=O)n1c(SCCOCCSc2nc3cc(Cl)c(Cl)cc3n2C(=O)CC)nc2cc(Cl)c(Cl)cc21 [Compound (17)] | none | 27 |  | 
14 | O=[N+]([O-])c1ccc2[nH]c(SCCOCCSc3nc4cc([N+](=O)[O-])ccc4[nH]3)nc2c1 [Compound (18)] | none | 10 |  | 
15 | c1ccc2[nH]c(SCCOCCOCCSc3nc4ccccc4[nH]3)nc2c1 [Compound (19)] | none | 11 |  | 
16 | CCC(=O)n1c(SCCOCCOCCSc2nc3ccccc3n2C(=O)CC)nc2ccccc21 [Compound (20)] | none | 69 |  | 
17 | CCCn1c(SCCOCCOCCSc2nc3ccccc3n2CCC)nc2ccccc21 [Compound (21)] | none | 23 |  | 
18 | c1ccc2[nH]c(SCCOCCOCCOCCSc3nc4ccccc4[nH]3)nc2c1 [Compound (22)] | none | 22 |  | 
19 | Cc1ccc2[nH]c(SCCCCCSc3nc4cc(C)ccc4[nH]3)nc2c1 [Compound I-1, 1,5-bis(5-methyl-2-benzimidazoylthio)pentane] |  |  | none | 
20 | Cc1cc2nc(SCCCCCSc3nc4cc(C)c(C)cc4[nH]3)[nH]c2cc1C [Compound I-2, 1,5-bis(5,6-dimethyl-2-benzimidazoylthio)pentane] |  |  | none | 
21 | Clc1ccc2[nH]c(SCCCCCSc3nc4cc(Cl)ccc4[nH]3)nc2c1 [Compound I-3, 1,5-bis(5-chloro-2-benzimidazoylthio)pentane] |  |  | none | 
22 | Clc1cc2nc(SCCCCCSc3nc4cc(Cl)c(Cl)cc4[nH]3)[nH]c2cc1Cl [Compound I-4, 1,5-bis(5,6-dichloro-2-benzimidazoylthio)Pentane] |  |  | none | 
23 | CC(=O)n1c(SCCCCCSc2nc3ccccc3n2C(C)=O)nc2ccccc21 [II-1, 1,5-bis(1-acetyl-2-benzimidazoylthio)pentane] |  |  | none | 
24 | CCC(=O)n1c(SCCCCCSc2nc3ccccc3n2C(=O)CC)nc2ccccc21 [II-2, 1,5-bis(1-propionyl-2-benzimidazoylthio)pentane] |  |  | none | 

Row | SMILES | Cytotoxicity ([1]; Table 1) | activity at 5 µM ([2]; Table 1, ratio to control) [%] | Cytotoxicity ([1]; Table 2) | further results
25 | CCCCC(CC)C(=O)n1c(SCCCCCSc2nc3ccccc3n2C(=O)C(CC)CCCC)nc2ccccc21 (stereo not shown) [II-4, 1,5-bis(1-(2-ethylhexanoyl)-2-benzimidazoylthio) pentane] |  |  | none | 
26 | O=C(c1ccc(Cl)cc1)n1c(SCCCCCSc2nc3ccccc3n2C(=O)c2ccc(Cl)cc2)nc2ccccc21 [II-6, 1,5-bis(1-(4-chlorobenzoyl)-2-benzimidazoylthio) pentane] |  |  | none | 
27 | CCC(=O)n1c(SCCCCSc2nc3ccccc3n2C(=O)CC)nc2ccccc21 [II-9, 1,4-bis(1-propionyl-2-benzimidazoylthio)butane] |  |  | none | 
28 | CCC(=O)n1c(SCCCCCCSc2nc3ccccc3n2C(=O)CC)nc2ccccc21 [II-10, 1,6-bis(1-propionyl-2-benzimidazoylthio)hexane] |  |  | none | 
29 | CCC(=O)n1c(SCCCCCCCCSc2nc3ccccc3n2C(=O)CC)nc2ccccc21 [II-11, 1,8-bis(1-propionyl-2-benzimidazoyl-thio)octane] |  |  | none | 
30 | CCC(=O)n1c(SCc2ccc(CSc3nc4ccccc4n3C(=O)CC)cc2)nc2ccccc21 [II-12, 1,4-bis(1-propionyl-2-benzimidazoylthiomethyl)benzene] |  |  | none | 
31 | CCC(=O)n1c(SCc2cccc(CSc3nc4ccccc4n3C(=O)CC)c2)nc2ccccc21 [II-13, 1,3-bis(1-propionyl-2-benzimidazoylthiomethyl)benzene] |  |  | none | 
32 | CCC(=O)n1c(SCCCCCSc2nc3cc(C)c(C)cc3n2C(=O)CC)nc2cc(C)c(C)cc21 [II-15, 1,5-bis(5,6-dimethyl-1-propionyl-2-benzimidazoylthio) pentane] |  |  | none | 
33 | CCC(=O)n1c(SCCCCCSc2nc3ccc(Cl)cc3n2C(=O)CC)nc2cc(Cl)ccc21 [II-20, 1-(5-chloro-1-propionyl-2-benzimidazoylthio)-5-(6-chloro-1-propionyl-2-benzimidazoylthio)pentane] |  |  | none | 
34 | Cn1c(SCCCCCSc2nc3ccccc3n2C)nc2ccccc21 [II-28, 1,5-bis(1-methyl-2-benzimidazoylthio)pentane] |  |  | none | 
35 | CCCn1c(SCCCCCSc2nc3ccccc3n2CCC)nc2ccccc21 [II-29, 1,5-bis(1-propyl-2-benzimidazoylthio)pentane] |  |  | none | 
36 | CCCCCCCCn1c(SCCCCCSc2nc3ccccc3n2CCCCCCCC)nc2ccccc21 [II-30, 1,5-bis(l-octyl-2-benzimidazoylthio)pentane] |  |  | none | 
37 | CCCCC(CC)Cn1c(SCCCCCSc2nc3ccccc3n2CC(CC)CCCC)nc2ccccc21 (stereo not shown) [II-31, 1,5-bis(1-(2-ethylhexyl)-2-benzimidazoylthio)pentane] |  |  | none | 
38 | c1ccc(Cn2c(SCCCCCSc3nc4ccccc4n3Cc3ccccc3)nc3ccccc32)cc1 [II-32, 1.5-bis(1-benzyl-2-benzimidazoylthio)pentane] |  |  | none | 
39 | Cn1c(SCCCCCSc2nc3cc(Cl)c(Cl)cc3n2C)nc2cc(Cl)c(Cl)cc21 [II-33, 1,5-bis(5,6-dichloro-1-methyl-2-benzimidazoylthio) pentane] |  |  | none | 
40 | CCCn1c(SCCCCCSc2nc3cc(Cl)c(Cl)cc3n2CCC)nc2cc(Cl)c(Cl)cc21 [II-34, 1,5-bis(5,6-dichloro-1-propyl-2-benzimidazoylthio) pentane] |  |  | none | 
41 | Cn1c(SCCCCCCCCSc2nc3ccccc3n2C)nc2ccccc21 [II-35, 1,8-bis(1-methyl-2-benzimidazoylthio)octane] |  |  | none | 
42 | c1ccc2[nH]c(SCCCCCCSc3nc4ccccc4[nH]3)nc2c1 [IV-1, 1,6-bis(2-benzimidazoylthio)hexane] |  |  | none | activity at 5 µM ([2]; Table 2, ratio to control): 28%
43 | c1ccc2[nH]c(SCCCCSc3nc4ccccc4[nH]3)nc2c1 [IV-3, 1,4-bis(2-benzimidazoylthio)butane] |  |  | none | 
44 | COc1ccc2[nH]c(SCCCCCSc3nc4cc(OC)ccc4[nH]3)nc2c1 [IV-4, 1,5-bis(5-methoxyl-2-benzimidazoylthio)pentane] |  |  | none | 
45 | O=[N+]([O-])c1ccc2[nH]c(SCCCCCSc3nc4cc([N+](=O)[O-])ccc4[nH]3)nc2c1 [IV-5, 1,5-bis(5-nitro-2-benzimidazoylthio)pentane] |  |  | none | 
46 | CCC(=O)Nc1ccc2[nH]c(SCCCCCSc3nc4cc(NC(=O)CC)ccc4[nH]3)nc2c1 [IV-8, 1,5-bis(5-propanamido-2-benzimidazoylthio)pentane] |  |  | none | 
47 | c1ccc2[nH]c(SCc3ccc(CSc4nc5ccccc5[nH]4)cc3)nc2c1 [IV-13, 1,4-bis(2-benzimidazoylthiomethyl)benzene] |  |  | none | 
48 | c1cc(CSc2nc3ccccc3[nH]2)cc(CSc2nc3ccccc3[nH]2)c1 [IV-14, 1,3-bis(2-benzimidazoylthiomethyl)benzene] |  |  | none | 

Reference: patent US5962493A, “2-mercaptobenzimidazole derivatives and antihyperlipemic agent or antiarteriosclerotic agent containing the same” (priority 1997, dated 1999)
